Data reported in patent US10918734B2 (Immunomedics, Inc., priority 2017, dated 2021).
Like-named read-outs stand apart in the source and are kept apart here.

How the values were obtained:
p53 = p53 expression in tumor cells; assay type: cell-based, human; conditions: BxPC-3 and Calu-3
Source text: (§1) SN-38 is known to activate several signaling pathways in cells, leading to apoptosis (e.g., Cusack et al., 2001, Cancer Res 61:3535-40; Liu et al. 2009, Cancer Lett 274:47-53; Lagadec et al., 2008, Br J Cancer 98:335-44). Our initial studies examined the expression of 2 proteins involved in early signaling events (p21^Waf1/Cip1 and p53) and 1 late apoptotic event [cleavage of poly-ADP-ribose polymerase (PARP)] in vitro (not shown).
(§2) In addition, p53 expression in cells exposed to the ADC was higher in both cell lines compared to SN-38 (not shown). […] In terms of later apoptotic events, cleavage of PARP was evident in both cell lines when incubated with either SN-38 or the conjugate (not shown). […] The higher degree of cleavage with free SN-38 over the ADC was consistent with the cytotoxicity findings.

[1] = test system: poly-ADP-ribose polymerase (PARP); experiment: Cleavage of PARP in tumor cells; assay type: cell-based, human; conditions: BxPC-3 and Calu-3
Source text: as §1, §2

[2] = test system: human SCLC tumors (DMS 53); assay type: in vivo, C.B.-17 SCID mice
Description: Female C.B.-17 SCID mice were injected s.c. with a tumor suspension made from of DMS 53 stock tumors (20% w/v) plus cells harvested from tissue culture (5×10^6 cells per mouse) mixed 1:1 with matrigel. […] All were administered twice weekly for 4 weeks. Two groups received only chemotherapy of either cisplatinum (5 mg/kg i.p.) or carboplatin (50 mg/kg i.p.) weekly for 4 weeks. […] A final untreated control group of mice received saline (100 μL i.p. twice weekly×4 wks). Tumors were measured and mice weighed twice weekly.

[3] = test system: SK-MES-1 human squamous cell lung tumors; experiment: SK-MES-1 xenograft therapy; design: species or system nude mice; conditions: mouse, in vivo
MDA-MB-231 tumors = experiment: MDA-MB-231 parental tumor therapy; assay type: in vivo, mice
Description: (§3) Rad51 and DNA-breaks (g-H2A.X) were determined by Western blot. […] Tumors were measured and mice weighed twice weekly. Study survival endpoint was tumor progression to >1.0 cm^3.

C13 tumors = experiment: MDA-MB-231 Trop-2 transfectant C13 tumor therapy; assay type: in vivo, mice; conditions: for median survival time (MST): IMMU-132 0.5 mg twice wkly × 4, irinotecan 40 mg/kg q2dx5
Description: as §3

C39 tumors = experiment: MDA-MB-231 Trop-2 transfectant C39 tumor therapy; assay type: in vivo, mice; conditions: for median survival time (MST): IMMU-132 0.5 mg twice wkly × 4, irinotecan 40 mg/kg q2dx5
Description: as §3

[4] = test system: SK-MES-1 squamous cell lung carcinoma; experiment: SK-MES-1 antitumor effect (FIG. 18); assay type: in vivo
Rad51 [5] = experiment: Rad51 expression in tumors taken from treated mice; assay type: in vivo; conditions: parental, C13 and C39 tumors
[6] = plasma esterase; cited from earlier work
advanced GI cancers = experiment: Phase I/II trial of IMMU-132 in advanced GI cancers: best response by RECIST, TTP; assay type: in vivo, human
Description: Patients with metastatic cancers were enrolled after failing standard therapy, starting at a dose of 8.0 mg/kg given on days 1 and 8 of a 3-week cycle.
Sixty patients with advanced GI cancers were enrolled in a Phase I/II trial.

[7] = test system: diverse metastatic cancers; experiment: Phase I/II clinical trial of IMMU-132 (Example 8): response and TTP; assay type: in vivo, human
Rad51 [8] = experiment: Rad51 levels by Western blot in cells exposed to IMMU-132; assay type: cell-based, human; conditions: for increase in Rad51 level: MDA-MB-231, 24-h exposure
Description: as §3

HCC1806 TNBC = HCC1806 TNBC antitumor effect (FIG. 17); assay type: in vivo
[9] = human, in vivo
Capan-1 tumors = experiment: Capan-1 xenograft therapy; assay type: in vivo, nude mice; conditions: day 140; 0.2 mg/kg SN-38 twice weekly x 4 weeks
p21^Waf1/Cip1 = experiment: p21Waf1/Cip1 expression in tumor cells; assay type: cell-based, human
Source text: as §1

Calu-3 tumors = experiment: Calu-3 xenograft therapy; assay type: in vivo, nude mice; conditions: 0.4 mg/kg SN-38; tumor-free until day 147
[10] = Tolerability in Cynomolgus monkeys; assay type: in vivo, Cynomolgus monkeys (Macaca fascicularis)
[11] = test system: BxPC3 human pancreatic carcinoma; conditions: FIG. 2
[12] = mouse, in vivo
[13] = human, in vivo; remark: listed apart in the source
[14] = Tolerability in Swiss-Webster mice; conditions: normal mice; 1,500 mg/kg of the conjugate
[15] = day 73, IMMU-132 250 μg (alone twice weekly, in combination weekly)

CCc1c2c(nc3ccc(O)cc13)-c1cc3c(c(=O)n1C2)COC(=O)[C@]3(O)CC [SN-38, reference compound]
exposure time at which upregulation of p53 was evident (p53): 48 h
cleavage of PARP [1]: evident

N.N.O=C([O-])C1(C(=O)[O-])CCC1.[Pt+2] [carboplatin, reference compound]
mean tumor volume ([2]; day 41 (therapy day 14)): 0.602±0.224 cm^3

N.N.[Cl][Pt][Cl] [cisplatinum, reference compound]
mean tumor volume [2, 15]: 0.758±0.240 cm^3

CCc1c2c(nc3ccc(OC(=O)N4CCC(N5CCCCC5)CC4)cc13)-c1cc3c(c(=O)n1C2)COC(=O)[C@]3(O)CC [irinotecan, reference compound]
antitumor effect vs specific hRS7-SN-38 conjugate [3]: provided the same antitumor effects
median survival time (MDA-MB-231 tumors; 40 mg/kg q2dx5): 26.5 days
median survival time (C13 tumors; 40 mg/kg q2dx5): 35 days
median survival time (MST) (C13 tumors): 35 days
median survival time (MST) (C39 tumors): 28 days
antitumor effects [4]: significant antitumor effects
Rad51 in tumors from treated mice (Rad51 [5]): up-regulation of Rad51 within 24 h
conversion rate to SN-38 [6]: greater than 50%

IMMU-132
gastric cancer patients with SD (advanced GI cancers; 3 with CT assessment): 3
esophageal cancer patients with PR (advanced GI cancers; 8 with CT assessment): 1
esophageal cancer patients with SD (advanced GI cancers; 8 with CT assessment): 4
pancreatic cancer patients with SD as best response (advanced GI cancers; 15 treated (5 at 8, 7 at 10, 3 at 12 mg/kg)): 7
CRC patients with SD as best response by RECIST (advanced GI cancers; 29 CRC patients): 14
CRC patients with PR as best response by RECIST (advanced GI cancers; 29 CRC patients (9 at 10 mg/kg, 20 at 8 mg/kg)): 1
extent of the PR (advanced GI cancers; CRC): ~65%
CT-assessable PDC patients with SD ([7]; 8 of 13): 62%
patients with disease response ([7]; 48 patients (excluding PDC)): 79%
antitumor effect compared to saline control ([2]; 500, 250 or 100 μg i.p. twice weekly for 4 weeks): significant antitumor effect
mean tumor volume [2, 15]: 0.745±0.162 cm^3
Rad51 up-regulation above untreated background (Rad51 [8]; C13 and C39, 24 h): ~2.5 fold
increase in Rad51 level (Rad51 [8]; 25 nM SN-38-equivalents): greater than 2 fold
increase in Rad51 level (Rad51 [8]; 100 nM): 4 fold
increase in Rad51 levels (Rad51 [8]; MDA-MB-231 cells, 24 h): > 2 fold
change in Rad51 (Rad51 [8]; SK-MES-1, HCC1806): Neither SK-MES-1 nor HCC1806 cells demonstrated any increases in Rad51
effect on Rad51 levels (Rad51 [8]; SK-MES-1 or HCC1806): no effect
median survival time (MST) (MDA-MB-231 tumors; 0.5 mg twice wkly × 4, endpoint tumor >1.0 cm^3): 21 days
effect on tumor growth (MDA-MB-231 tumors; FIG. 19): no effect on tumor growth
effect on survival (MDA-MB-231 tumors; FIG. 22): no antitumor effect on survival
efficacy (MDA-MB-231 tumors; past studies, FIG. 16): neither IMMU-132 nor irinotecan demonstrated any efficacy
effect on tumor growth (C13 tumors; FIG. 20): effective to inhibit tumor growth
median survival time (MST) (C13 tumors): > 70 days
effect on tumor growth (C39 tumors; FIG. 21): effective to inhibit tumor growth
median survival time (MST) (C39 tumors): > 70 days
antitumor effects (HCC1806 TNBC): significant antitumor effects
antitumor effects [4]: significant antitumor effects
Rad51 in tumors from treated mice (Rad51 [5]): up-regulation of Rad51 within 24 h
Abdominal pain, Grade 3 [9]: 0
Abdominal pain, Grade 4 [9]: 0
Anemia, Grade 3 [9]: 2 (4%)
Anemia, Grade 4 [9]: 0
Deep vein thrombosis, Grade 3 [9]: 1 (2%)
Deep vein thrombosis, Grade 4 [9]: 0
Diarrhea, Grade 3 [9]: 4 (9%)
Diarrhea, Grade 4 [9]: 0
Dysgeusia, Grade 3 [9]: 0
Dysgeusia, Grade 4 [9]: 0
Fatigue, Grade 3 [9]: 4 (9%)
Fatigue, Grade 4 [9]: 0
Hypokalemia, Grade 3 [9]: 1 (2%)
Hypokalemia, Grade 4 [9]: 0
Nausea, Grade 3 [9]: 0
Nausea, Grade 4 [9]: 0
Neutropenia, Grade 3 [9]: 11 (24%)
Neutropenia, Grade 4 [9]: 2 (4%)
Pyrexia, Grade 3 [9]: 0
Pyrexia, Grade 4 [9]: 0
Vomiting, Grade 3 [9]: 1 (2%)
Vomiting, Grade 4 [9]: 0
WBC Decrease, Grade 3 [9]: 1 (2%)
WBC Decrease, Grade 4 [9]: 0
neutropenia ≥G3 [9]: 28%

hA20-CL2A-SN-38 [reference compound]
mice tumor-free at end of study (Capan-1 tumors): 20%
antitumor effect vs specific hRS7-SN-38 conjugate [3]: provided the same antitumor effects

hRS7 IgG
effect on p21Waf1/Cip1 expression (p21^Waf1/Cip1): no appreciable effect
exposure time at which upregulation of p53 was evident (p53): 48 h

hRS7-CL2-SN-38
mice tumor-free at end of study (Capan-1 tumors): 40%
time within which all mice were cured (Calu-3 tumors): ≤ 28 days

hRS7-CL2A-SN-38
mice tumor-free at end of study (Capan-1 tumors): 50%
increase in p21Waf1/Cip1 expression over free SN-38 (p21^Waf1/Cip1; Calu-3): more than 2 fold
exposure time at which upregulation of p53 was evident (p53): ≤ 24 h
cleavage of PARP [1]: evident
blood count data ([10]; 2×0.96 mg SN-38/kg, transient decreases): values did not fall below normal ranges
human equivalent dose of MTD (2 doses) ([10]; cynomolgus monkey, in vivo): 0.3-0.6 mg/kg SN-38
therapeutic efficacy vs control treatments [11]: better therapeutic efficacy than control treatments
AST level [12]: > 298 U/L
histology at termination [12]: no histologic evidence of tissue damage
glucose levels (slightly elevated) ([12]; 8 mg/kg): 273 to 320 mg/dL
mice with slightly elevated glucose levels ([12]; 8 mg/kg): 5 of 7

hRS7-SN-38
cumulative human equivalent dose tolerated by monkeys ([10]; cynomolgus monkey, in vivo): 22 mg/m^2
dose tolerated by monkeys ([10]; only minor, reversible toxicities): 24 mg SN-38 equivalents/kg
reduction in target lesions at first CT assessment ([7]; person with CRC, starting dose 8 mg/kg): 37%
SN-38 released daily [13]: 50%
time within which the conjugate cleared from the serum [13]: ≤ 3 days
cumulative dose over 1 week without acute toxicity [14]: 24 mg/kg SN-38
